Assay results: ChEMBL document CHEMBL1201862, “PubChem BioAssay data set” (2004)
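Values below derive from 48-hour exposures of cells grown in 96-well plates, with endpoints linearly interpolated between the two concentrations bracketing the appropriate inhibition level. At the GI50, growth is halved.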 The source made the active and inactive calls. No stated cut-off is given here; in the data, active = GI50 up to about 1.1 µM and inactive = higher.

Experiments:
Test in all cases: growth of human tumour cells (NCI), 48 h
BT-549 = system: BT-549
TK-10 = system: TK-10
SR = system: SR
COLO 205 = system: COLO 205
HOP-92 = system: HOP-92
NCI-H522 = system: NCI-H522
MOLT-4 = system: MOLT-4
MDA-MB-435 = system: MDA-MB-435
HT-29 = system: HT-29
OVCAR-4 = system: OVCAR-4
IGROV-1 = system: IGROV-1
NCI/ADR-RES = system: NCI/ADR-RES
M14 = system: M14
UO-31 = system: UO-31
CCRF-CEM = system: CCRF-CEM
OVCAR-5 = system: OVCAR-5
NCI-H23 = system: NCI-H23
Hs-578T = system: Hs-578T
MDA-MB-231 = system: MDA-MB-231
T47D = system: T47D

| SMILES | GI50 (BT-549) | GI50 (TK-10) | GI50 (SR) | GI50 (COLO 205) | GI50 (HOP-92) | GI50 (NCI-H522) | GI50 (MOLT-4) | GI50 (MDA-MB-435) | GI50 (HT-29) | GI50 (OVCAR-4) | GI50 (IGROV-1) | GI50 (NCI/ADR-RES) | GI50 (M14) | GI50 (UO-31) | GI50 (CCRF-CEM) | GI50 (OVCAR-5) | GI50 (NCI-H23) | GI50 (Hs-578T) | GI50 (MDA-MB-231) | GI50 (T47D) |
| --- | --- | --- | --- | --- | --- | --- | --- | --- | --- | --- | --- | --- | --- | --- | --- | --- | --- | --- | --- | --- |
| Nc1ncn(C2OC(COP(=O)(O)O)C(O)C2O)c(=O)n1 (stereo not given) | > 100 µM (inactive) | > 100 µM (inactive) | > 91.6 µM (inactive) | > 100 µM (inactive) | > 100 µM (inactive) | > 87.9 µM (inactive) | 2.39 µM (inactive) | > 53.2 µM (inactive) | > 100 µM (inactive) | > 100 µM (inactive) | > 100 µM (inactive) | > 100 µM (inactive) | > 100 µM (inactive) | > 91.2 µM (inactive) | 1.87 µM (inactive) | > 100 µM (inactive) | > 81.8 µM (inactive) | > 100 µM (inactive) | > 100 µM (inactive) | > 100 µM (inactive) |
| O=c1[nH]c2cc3[nH]c4ncccc4c(=O)c3cc2[nH]1 | > 10 µM (inactive) | > 10 µM (inactive) | > 10 µM (inactive) | > 10 µM (inactive) | > 10 µM (inactive) | > 10 µM (inactive) | > 10 µM (inactive) | > 10 µM (inactive) | > 10 µM (inactive) | > 10 µM (inactive) | > 10 µM (inactive) | > 10 µM (inactive) | > 10 µM (inactive) | – | > 10 µM (inactive) | > 10 µM (inactive) | > 10 µM (inactive) | > 10 µM (inactive) | > 10 µM (inactive) | > 10 µM (inactive) |
| S=C1c2ccccc2N=C(NC2CCCC2)C2CSCN12 (stereo not given) | > 100 µM (inactive) | > 100 µM (inactive) | 39.6 µM (inactive) | > 100 µM (inactive) | – | 37.5 µM (inactive) | 26.3 µM (inactive) | 76 µM (inactive) | 48.5 µM (inactive) | > 100 µM (inactive) | > 100 µM (inactive) | > 100 µM (inactive) | 91.8 µM (inactive) | 65.2 µM (inactive) | 32 µM (inactive) | > 100 µM (inactive) | – | 44.4 µM (inactive) | > 100 µM (inactive) | 48.3 µM (inactive) |
| [O-]c1c[n+](-c2ccccc2)no1 | > 100 µM (inactive) | > 100 µM (inactive) | > 100 µM (inactive) | > 100 µM (inactive) | > 100 µM (inactive) | – | – | > 100 µM (inactive) | > 100 µM (inactive) | > 100 µM (inactive) | > 100 µM (inactive) | > 100 µM (inactive) | > 100 µM (inactive) | > 100 µM (inactive) | > 100 µM (inactive) | > 100 µM (inactive) | > 100 µM (inactive) | > 100 µM (inactive) | > 100 µM (inactive) | > 100 µM (inactive) |
| C/C=C/c1cc2c(cc1O)CC[C@@H]1[C@@H]2CC[C@]2(C)[C@@H](O)CC[C@@H]12 | 1.6 µM (inactive) | 14.3 µM (inactive) | 0.0259 µM (active) | 11.7 µM (inactive) | – | < 0.0142 µM (active) | 0.0409 µM (active) | 0.0102 µM (active) | 6.34 µM (inactive) | 13.6 µM (inactive) | 1.96 µM (inactive) | 0.0246 µM (active) | 0.041 µM (active) | 0.372 µM (active) | 0.0289 µM (active) | 10.8 µM (inactive) | 0.133 µM (active) | 0.0653 µM (active) | 0.317 µM (active) | 14.8 µM (inactive) |
| CC(=O)C1=C(C)N(c2ccc(C)cc2)C2(O)C=CC(O)=C3C(=O)c4ccccc4C(=O)C312 (stereo not given) | 11 µM (inactive) | 23.4 µM (inactive) | 36.9 µM (inactive) | 5.05 µM (inactive) | 55.1 µM (inactive) | 13.7 µM (inactive) | 3.05 µM (inactive) | 2.33 µM (inactive) | 3.89 µM (inactive) | 12.6 µM (inactive) | 7.38 µM (inactive) | 3.78 µM (inactive) | 18.6 µM (inactive) | 14.1 µM (inactive) | – | 23.7 µM (inactive) | 21.1 µM (inactive) | 24.2 µM (inactive) | 20.7 µM (inactive) | 9.95 µM (inactive) |
| CC[C@@H]1/C=C/C=C/C[C@H](C)[C@@H](O)[C@@H](C)C(=O)[C@H](C)[C@@H](O)[C@H](C)C(=O)[C@H](C)[C@@H](O)[C@H](C)/C=C/C(=O)O[C@H]2[C@@H](C)[C@@H](CC1)O[C@@]1(CC[C@@H](C)[C@@H](CC(C)O)O1)[C@@H]2C (stereo not given in full) | 4.32 µM (inactive) | 0.528 µM (active) | 3.01 µM (inactive) | 0.00408 µM (active) | 3.25 µM (inactive) | 0.0188 µM (active) | 0.815 µM (active) | 3.11 µM (inactive) | 2.94 µM (inactive) | 0.057 µM (active) | 4.48 µM (inactive) | 0.596 µM (active) | 2.47 µM (inactive) | – | 1.75 µM (inactive) | 3.63 µM (inactive) | 0.00361 µM (active) | 6.03 µM (inactive) | 4.35 µM (inactive) | < 0.0025 µM (active) |
| CN(C)CCSCCO | > 100 µM (inactive) | > 100 µM (inactive) | > 100 µM (inactive) | > 100 µM (inactive) | > 100 µM (inactive) | > 100 µM (inactive) | – | > 100 µM (inactive) | > 100 µM (inactive) | > 100 µM (inactive) | > 100 µM (inactive) | > 100 µM (inactive) | > 100 µM (inactive) | > 100 µM (inactive) | – | > 100 µM (inactive) | > 100 µM (inactive) | > 100 µM (inactive) | > 100 µM (inactive) | > 100 µM (inactive) |
| COc1cc(Cn2c3c(c4c(C(=O)NCCN(C)C)c(O)ccc42)C(=O)c2ccccc2C3=O)cc(OC)c1 | 2.23 µM (inactive) | 1.61 µM (inactive) | 0.31 µM (active) | 1.81 µM (inactive) | – | 1.71 µM (inactive) | – | 1.75 µM (inactive) | 1.87 µM (inactive) | 1.71 µM (inactive) | 1.73 µM (inactive) | 2.32 µM (inactive) | 1.73 µM (inactive) | 1.71 µM (inactive) | 0.601 µM (active) | 1.67 µM (inactive) | 2.09 µM (inactive) | 1.79 µM (inactive) | 2.1 µM (inactive) | 1.8 µM (inactive) |
| O=C(O)C1C2C=CC(O2)C1C(=O)Nc1ccccc1 (stereo not given) | > 100 µM (inactive) | > 100 µM (inactive) | > 100 µM (inactive) | > 100 µM (inactive) | – | > 100 µM (inactive) | > 100 µM (inactive) | > 100 µM (inactive) | > 100 µM (inactive) | > 100 µM (inactive) | > 100 µM (inactive) | > 100 µM (inactive) | > 100 µM (inactive) | > 100 µM (inactive) | > 100 µM (inactive) | > 100 µM (inactive) | > 100 µM (inactive) | > 100 µM (inactive) | > 100 µM (inactive) | > 100 µM (inactive) |
| NC(CSc1nc2ccccn2c1[N+](=O)[O-])C(=O)O (stereo not given) | > 100 µM (inactive) | > 100 µM (inactive) | 61.1 µM (inactive) | > 100 µM (inactive) | > 100 µM (inactive) | > 100 µM (inactive) | – | > 100 µM (inactive) | > 100 µM (inactive) | > 100 µM (inactive) | > 100 µM (inactive) | > 100 µM (inactive) | > 100 µM (inactive) | 2.49 µM (inactive) | – | > 100 µM (inactive) | > 100 µM (inactive) | > 100 µM (inactive) | > 100 µM (inactive) | > 100 µM (inactive) |
